Experimental data as given in publication PMC9540877, “Clinical Formulation Bridging of Gefapixant, a P2X3‐Receptor Antagonist, for the Treatment of Chronic Cough” (Clinical Pharmacology in Drug Development, 2022).

Columns and labels:
[1] = Safety and tolerability in studies 1 to 4; assay type: in vivo, human
Procedure: Safety and tolerability for all studies were determined using clinical assessments, including physical examinations, vital signs, standard laboratory tests, 12‐lead electrocardiograms, and adverse events (AEs).

[2] = cited from earlier work
MATE1/2K = details: cited from earlier work
[3] = system: organic anion transporter P1B1; parameters: method as in PMID 34821075; details: twice-daily gefapixant 45 mg; cited from earlier work
[4] = parameters: method as in PMID 35248186; details: patients with RCC or UCC, COUGH-1 and COUGH-2; cited from earlier work

Structure (SMILES): COc1cc(C(C)C)c(Oc2cnc(N)nc2N)cc1S(N)(=O)=O [gefapixant, Gefapixant]
- serious AEs ([1]; all 4 studies): no serious AEs
- severity of all AEs ([1]; all 4 studies): mild or moderate
- most commonly reported AEs ([1]; studies 1 and 2): taste related
- most common AE ([1]; studies 3 and 4): headache
- excreted metabolites, share of the gefapixant dose [2]: 14%
- terminal half-life (t1/2) [2]: ≈ 7 hours
- effect of inhibiting MATE1/2K via pyrimethamine on gefapixant exposure (MATE1/2K): does not meaningfully increase
- effect on the pharmacokinetics of pitavastatin [3]: no effect
- 24-hour cough frequency [4]: significantly reduced
